Test results as given in article PMC4623880 (Digestive diseases and sciences, 2015).
Entries after “also recorded” stand apart in the source; their conditions may differ. Like-named read-outs stand apart in the source and are kept apart here. One block for each molecule: values may come before it.

Tests used:
[1] = type: in vivo, human; conditions: for observed maximum concentration of plasma sildenafil: 2.5 mg IV bolus; for Cmax: N-desmethyl sildenafil, after 2.5 mg IV bolus sildenafil
[2] = Tolerability and hemodynamics; type: in vivo, human; conditions: for tolerability / safety of IV sildenafil: both subjects, single 2.5 mg IV bolus injection
[3] = cited from earlier work
[4] = healthy volunteers; cited from earlier work
[5] = subject 1, 16 min after 2.5 mg IV bolus sildenafil
[6] = subject 1, 30 min after 2.5 mg IV bolus sildenafil
[7] = subject 1, 60 min after 2.5 mg IV bolus sildenafil
[8] = subject 1, 120 min after 2.5 mg IV bolus sildenafil
[9] = subject 1, 178 min after 2.5 mg IV bolus sildenafil
[10] = subject 1, 242 min after 2.5 mg IV bolus sildenafil
[11] = subject 1, 360 min after 2.5 mg IV bolus sildenafil
[12] = subject 1, 480 min after 2.5 mg IV bolus sildenafil
[13] = subject 2, 15 min after 2.5 mg IV bolus sildenafil
[14] = subject 2, 30 min after 2.5 mg IV bolus sildenafil
[15] = subject 2, 60 min after 2.5 mg IV bolus sildenafil
[16] = subject 2, 122 min after 2.5 mg IV bolus sildenafil
[17] = subject 2, 180 min after 2.5 mg IV bolus sildenafil
[18] = subject 2, 240 min after 2.5 mg IV bolus sildenafil
[19] = subject 2, 360 min after 2.5 mg IV bolus sildenafil
[20] = subject 2, 480 min after 2.5 mg IV bolus sildenafil

- clearance lower than mean in healthy volunteers ([1]; second value, for CL 14.9 L/hr vs 40.8 L/hr): 71%
- observed maximum concentration of plasma sildenafil ([1]; subject 1 (first value)): 35 ng/mL
- observed maximum concentration of plasma sildenafil ([1]; subject 2 (second value)): 20.6 ng/mL
Structure (SMILES): CCCc1nn(C)c2c(=O)[nH]c(-c3cc(S(=O)(=O)N4CCN(C)CC4)ccc3OCC)nc12 [Sildenafil, sildenafil]
- tolerability / safety of IV sildenafil [2]: without side effects
- tolerability / safety of IV sildenafil ([2]; listed as sildenafil): without adverse events; also recorded: safe and tolerable; also recorded: can be safely administered
- adverse events reported at interview ([2]; forty-eight hours after sildenafil injection): did not report any adverse events
- Heart Rate [2, 5]: 53
- Mean Arterial Pressure [2, 5]: 75 mmHg
- Heart Rate [2, 6]: 53
- Mean Arterial Pressure [2, 6]: 78 mmHg
- Heart Rate [2, 7]: 55
- Mean Arterial Pressure [2, 7]: 78 mmHg
- Heart Rate [2, 8]: 51
- Mean Arterial Pressure [2, 8]: 75 mmHg
- Heart Rate [2, 9]: 50
- Mean Arterial Pressure [2, 9]: 79 mmHg
- Heart Rate [2, 10]: 50
- Mean Arterial Pressure [2, 10]: 78 mmHg
- Heart Rate [2, 11]: 53
- Mean Arterial Pressure [2, 11]: 83 mmHg
- Heart Rate [2, 12]: 54
- Mean Arterial Pressure [2, 12]: 83 mmHg
- lowest MAP observed ([2]; subject 1, at 16 and 120 minutes after sildenafil injection): 75
- Heart Rate [2, 13]: 98
- Mean Arterial Pressure [2, 13]: 69 mmHg
- Heart Rate [2, 14]: 98
- Mean Arterial Pressure [2, 14]: 73 mmHg
- Heart Rate [2, 15]: 98
- Mean Arterial Pressure [2, 15]: 75 mmHg
- Heart Rate [2, 16]: 90
- Mean Arterial Pressure [2, 16]: 81 mmHg
- Heart Rate [2, 17]: 97
- Mean Arterial Pressure [2, 17]: 80 mmHg
- Heart Rate [2, 18]: 93
- Mean Arterial Pressure [2, 18]: 75 mmHg
- Heart Rate [2, 19]: 92
- Mean Arterial Pressure [2, 19]: 72 mmHg
- Heart Rate [2, 20]: 94
- Mean Arterial Pressure [2, 20]: 75 mmHg
- lowest MAP ([2]; subject 2, at 15 minutes after sildenafil injection): 69 mmHg
- adverse events ([2]; up to 9 hours after sildenafil injection): No adverse events
- mean clearance of sildenafil reduced compared to normal controls ([3]; CTP class A and B cirrhosis, single 50 mg oral dose): 46%
- dose-corrected mean Cmax [4]: 26.6 ng/mL
- mean half-life [4]: 3.9 h

- Cmax ([1]; subject 1): 2.6 ng/mL
- Cmax ([1]; subject 2): 1.1 ng/mL
- N-desmethyl Sildenafil Concentration ([1]; plasma, subject 1, 16 min after 2.5 mg IV bolus sildenafil): 1.21 ng/mL
- N-desmethyl Sildenafil Concentration ([1]; plasma, subject 1, 30 min after 2.5 mg IV bolus sildenafil): BLQ
- N-desmethyl Sildenafil Concentration ([1]; plasma, subject 1, 60 min after 2.5 mg IV bolus sildenafil): 2.26 ng/mL
- N-desmethyl Sildenafil Concentration ([1]; plasma, subject 1, 88 min after 2.5 mg IV bolus sildenafil): 2.10 ng/mL
- N-desmethyl Sildenafil Concentration ([1]; plasma, subject 1, 120 min after 2.5 mg IV bolus sildenafil): 2.49 ng/mL
- N-desmethyl Sildenafil Concentration ([1]; plasma, subject 1, 178 min after 2.5 mg IV bolus sildenafil): 2.64 ng/mL
- N-desmethyl Sildenafil Concentration ([1]; plasma, subject 1, 242 min after 2.5 mg IV bolus sildenafil): 2.19 ng/mL
- N-desmethyl Sildenafil Concentration ([1]; plasma, subject 1, 360 min after 2.5 mg IV bolus sildenafil): 2.00 ng/mL
- N-desmethyl Sildenafil Concentration ([1]; plasma, subject 1, 480 min after 2.5 mg IV bolus sildenafil): 1.53 ng/mL
- N-desmethyl Sildenafil Concentration ([1]; plasma, subject 2, 15 min after 2.5 mg IV bolus sildenafil): BLQ
- N-desmethyl Sildenafil Concentration ([1]; plasma, subject 2, 30 min after 2.5 mg IV bolus sildenafil): BLQ
- N-desmethyl Sildenafil Concentration ([1]; plasma, subject 2, 60 min after 2.5 mg IV bolus sildenafil): BLQ
- N-desmethyl Sildenafil Concentration ([1]; plasma, subject 2, 90 min after 2.5 mg IV bolus sildenafil): BLQ
- N-desmethyl Sildenafil Concentration ([1]; plasma, subject 2, 122 min after 2.5 mg IV bolus sildenafil): BLQ
- N-desmethyl Sildenafil Concentration ([1]; plasma, subject 2, 180 min after 2.5 mg IV bolus sildenafil): 1.06 ng/mL
- N-desmethyl Sildenafil Concentration ([1]; plasma, subject 2, 240 min after 2.5 mg IV bolus sildenafil): BLQ
- N-desmethyl Sildenafil Concentration ([1]; plasma, subject 2, 360 min after 2.5 mg IV bolus sildenafil): BLQ
- N-desmethyl Sildenafil Concentration ([1]; plasma, subject 2, 480 min after 2.5 mg IV bolus sildenafil): BLQ
- metabolite concentrations ([1]; plasma, subject 2, all times except 180 minutes after sildenafil injection): unmeasurable
Structure (SMILES): CCCc1nn(C)c2c(=O)[nH]c(-c3cc(S(=O)(=O)N4CCNCC4)ccc3OCC)nc12 [N-desmethyl Sildenafil, N-desmethyl sildenafil]
- N-desmethyl sildenafil AUC increased compared to healthy subjects ([3]; CTP class A and B cirrhosis): 154%
- mean Cmax of N-desmethyl sildenafil increased compared to normal controls ([3]; CTP class A and B cirrhosis): 87%
- N-desmethyl sildenafil AUC/sildenafil AUC ([3]; healthy subjects): 52%
- N-desmethyl sildenafil AUC/sildenafil AUC ([3]; subjects with CTP Class A and B cirrhosis): 71%
